Data as given in paper PMC4193996 (Journal of Experimental & Clinical Cancer Research : CR, 2014).

Assays:
[1] = test system: h-Tel quadruplex DNA, 5'-biotin-d[AG3(T2AG3)3] (DNA, G4) AGGGTTAGGGTTAGGGTTAGGG; experiment: SPR
[2] = target: hERG (Homo sapiens, UniProt Q12809); experiment: hERG tail current inhibition in a patch clamp assay; format: cell-based; conditions: read-out: hERG % inh @10 μM
Experimental: hEGR study and the M2 and the β2 receptor inhibition assay were performed as previously reported.
The new G-quadruplex ligands were designed in an attempt to obtain molecules with improved toxicological and on-target profiles, but maintaining the same favorable chemical and pharmacological features of the lead compound 1. With the aim of selecting the best variants, a step by step comparative analysis of their off- and on-target properties was performed. Initially the new molecules were tested for their ability to interact with and inhibit the human recombinant β2 adrenergic and M2 muscarinic receptors, and to reduce the hERG tail current in a patch clamp assay. […] Therefore, we might expect that the new ligands would impair cardiac functionality to a lesser extent than the lead molecule does.

[3] = test system: BJ-EHLT fibroblasts; experiment: γ-H2AX/TRF1 colocalization (TIFs, telomere uncapping); format: cell-based, human
Experimental: Cells were fixed in 2% formaldehyde and permeabilized in 0.25% Triton X100 in PBS for 5 min at room temperature. For immunolabeling, cells were incubated with primary antibody, then washed in PBS and incubated with the secondary antibodies. The following primary antibodies were used: pAb and mAb anti-TRF1(Abcam Ltd.; Cambridge UK); mAb (Upstate, Lake Placid, NY) and pAb anti-γH2AX (Abcam); mAb anti-PCNA (Sigma Chemicals, Milano, Italy). The following secondary antibody were used: TRITC conjugated Goat anti Rabbit, FITC conjugated Goat anti Mouse (Jackson ImmunoResearch Europe Ltd., Suffolk, UK). Fluorescence signals were recorded by using a Leica DMIRE2 microscope equipped with a Leica DFC 350FX camera and elaborated by a Leica FW4000 deconvolution software (Leica, Solms, Germany). This system permits to focus single planes inside the cell generating 3D highresolution images. For quantitative analysis of γH2AX positivity, 200 cells on triplicate slices were scored. For TIFs analysis, in each nucleus a single plane was analyzed and at least 50 nuclei per sample were scored.
Unfortunately, we were not able to test compounds 4, 5 and the 0,5 μM dose of 3 as they were fluorescent in both red and green channels. […] To ascertain whether γ-H2AX was phosphorylated in response to dysfunctional telomeres, double immunofluorescence experiments were processed by confocal microscopy. We observed that some of the γ-H2AX foci induced by G4-ligands colocalized with TRF1, a good marker for interphase telomeres, forming the so-called telomere dysfunction-induced foci (TIFs) (Figure 2B).
Figure 2 DNA damage activation at telomeres. BJ-EHLT fibroblasts were treated for 24 hrs with compound 1 and the indicated ligands at the doses 0.1 (light-grey bars) and 0.5 μM (dark-grey bars). Cells were processed for immunofluorescence (IF) using antibodies against γ-H2AX and TRF1 to mark DNA damage and telomeres respectively. Percentages of γ-H2AX- (A) and TIF-positive (B) treated and untreated cells are reported in the histograms. (C) Mean number of TIFs in the indicated samples. Cells with four or more γ-H2AX/TRF1 foci were scored as TIF positive. Error bars indicate the standard deviation. (D) Representative images of IF of untreated and 1, 3, 6 and 8-treated BJ-EHLT cells. Enlarged views of TIFs are reported on the right of the merged images. The images were acquired with a Leica Deconvolution microscope (magnification 100x). (E) Cells treated as in (A) were processed for IF of γ-H2AX and PCNA to mark replicating cells. Percentage of γ-H2AX+/PCNA- or γ-H2AX+/PCNA + nuclei in the indicated samples are reported in the histograms.

[4] = test system: HT29 cells; experiment: Colony forming ability, single agent or combined with SN-38; format: cell-based, human
Experimental: The HT29 cells were seeded in 60 mm- Petri dishes at a density of 5x10^4 cells/ plate in DMEM medium plus 10% serum FCS. After 24 hours cells were exposed to the following drugs: Ethyl-10-hydroxy-camptothecin (SN-38; 0.2, 0.4, 0.8 μM for 2 hrs), compound 8 (at 0.1, 0.2 and 0.4 μM for 96 hours) and compound 1 (0.5 and 1 μM for 96 hours). In the combination experiments the two different sequence of drug administration were evaluated: campthotecin followed by G-quadruplex ligands and the inverse sequence at fixed equipotent ratios. The medium containing the first drug was removed and replaced with fresh medium containing the second drug. Colony forming ability was evaluated as previously reported.
Synergism, additivity, and antagonism were assessed by isobologram analysis as reported previously. Combination index (CI) values <0.9, > 0.9 < 1.2, and >1.2 indicate synergism, additivity, and antagonism, respectively. The Student’s t-test (unpaired, two-tailed) was used for comparing statistical differences. Differences were considered statistically significant when P < 0.05.
We have previously reported that compound 1 in combination therapy with topoisomerase (TOPO) I inhibitors (Camptothecins) produced a synergistic antitumoral activitiy in in vitro and in vivo models. […] The study of in vitro interaction between agent 8 and ethyl-10-hydroxy-camptothecin (SN-38), the active metabolite of camptothecin Irinotecan, was preceded by experiments in which the cell colony-forming ability of the human colorectal adenocarcinoma HT29 cells was evaluated at different doses of compound 1 or 8. […]
Figure 3 Anti-tumor efficacy of compound 8 in single or combined administration with the topoisomerase I inhibitor SN-38. […] Surviving fractions were calculated as the ratio of absolute survival of the treated sample/absolute survival of the untreated sample. […] In the histograms the surviving fractions calculated as in (A) are reported. […] (C) Combination Index for SN-38 and 8 was calculated by the Chou–Talalay method. […]

Sequence of hERG (Q12809 whole entry): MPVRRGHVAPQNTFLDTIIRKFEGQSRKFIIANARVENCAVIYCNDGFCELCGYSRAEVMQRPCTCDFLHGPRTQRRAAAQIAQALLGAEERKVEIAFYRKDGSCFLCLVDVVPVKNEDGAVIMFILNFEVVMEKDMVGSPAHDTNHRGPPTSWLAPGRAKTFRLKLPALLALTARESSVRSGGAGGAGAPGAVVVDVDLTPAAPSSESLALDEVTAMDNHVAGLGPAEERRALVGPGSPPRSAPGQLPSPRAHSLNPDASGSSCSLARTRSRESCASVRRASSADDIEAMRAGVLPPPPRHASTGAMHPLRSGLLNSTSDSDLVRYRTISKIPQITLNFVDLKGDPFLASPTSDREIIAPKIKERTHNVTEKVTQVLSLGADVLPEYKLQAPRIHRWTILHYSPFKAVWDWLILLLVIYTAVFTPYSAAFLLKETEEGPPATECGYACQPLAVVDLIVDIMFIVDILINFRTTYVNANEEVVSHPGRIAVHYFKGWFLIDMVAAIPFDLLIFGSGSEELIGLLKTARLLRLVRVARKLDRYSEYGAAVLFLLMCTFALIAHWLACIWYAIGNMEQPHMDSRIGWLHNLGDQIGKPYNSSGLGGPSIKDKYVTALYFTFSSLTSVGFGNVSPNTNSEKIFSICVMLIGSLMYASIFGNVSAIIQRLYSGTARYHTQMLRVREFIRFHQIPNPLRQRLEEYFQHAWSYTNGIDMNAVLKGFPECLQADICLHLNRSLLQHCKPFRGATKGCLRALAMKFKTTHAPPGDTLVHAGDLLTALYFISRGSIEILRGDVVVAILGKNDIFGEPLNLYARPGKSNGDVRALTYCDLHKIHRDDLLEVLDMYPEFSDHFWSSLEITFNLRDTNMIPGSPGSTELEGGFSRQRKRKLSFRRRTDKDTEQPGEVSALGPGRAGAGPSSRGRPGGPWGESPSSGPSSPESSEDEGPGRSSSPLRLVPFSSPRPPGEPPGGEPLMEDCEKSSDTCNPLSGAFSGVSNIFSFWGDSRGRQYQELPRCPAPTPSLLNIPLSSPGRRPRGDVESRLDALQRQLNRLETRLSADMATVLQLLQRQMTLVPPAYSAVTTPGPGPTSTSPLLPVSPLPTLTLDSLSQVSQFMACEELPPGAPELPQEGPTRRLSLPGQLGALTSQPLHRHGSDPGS

For CC(=O)NCC#Cc1ccc2c3cccc4c3c([n+](C)c2c1)-c1ccccc1N4C [Compound 8], the K [1] was 1.42e+07 M⁻¹, the inhibition at 10 µM [2] was 40% and the “mean TIFs per nucleus” value ([3]; 24 hrs) was “about seven”. The “percentage of cells with more than four γ-H2AX/TRF1 colocalizations (TIF-positive)” value ([3]; 24 hrs, 0,5 μM) was ~40%, the “cell survival (colony-forming ability), single agent” value ([4]; HT29, 96 hours, 0.1 to 0.8 μM) was “inhibited cell survival in a dose-dependent manner like compound 1 but more efficiently so” and the “Interaction with SN-38, inverse sequence” value ([4]; HT29, G4-ligand followed by SN-38) was “additive or slight synergistic interaction”. For the same compound, the “Combination Index (CI) with SN-38” value ([4]; HT29, SN-38 (2 hrs) followed by the G4-ligand (96 hours)) was < 0.5.
